Where a name gives a salt, the structure may show the parent alone.
Assays:
[1] = test system: HCC827 (lung adenocarcinoma, SM, exon19delE746-A750); test: Antiproliferative activity on HCC827 cells (Alamar Blue); assay type: cell-based; conditions: Homo sapiens, antiproliferative test
Method in brief: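 HCC827 cells (EGFR exon19del E746-A750), 10×10^3/well, attached 16–18 h, then exposed to compounds for 72 h at 37 °C in RPMI-1640 with 2% FBS, ≤1% DMSO. Viability by Alamar Blue fluorescence (ex 540/em 590 nm) after 3–5 h; IC50 by four-parameter logistic fit.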

[2] = Chemical stability in simulated gastric fluid (SGF); assay type: physicochemical; conditions: SGF without enzymes, pH 1,4; 10 μm; 2 hours at 37° C.; substance amount remaining
Method in brief: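 Compound at 10 μm (diluted from 10 mM DMSO stock) incubated 2 h at 37° C in enzyme-free SGF, pH=1,4, or enzyme-free SIF, pH=6.5. HPLC peak areas before and after incubation give % compound remaining.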

Row | IC50 [1] | Stability in SGF, % [2] | SMILES
1 | 18 nM | 100.0% | C=CC(=O)Nc1cc(Nc2cc(C(=O)c3ccc(-c4cnn(C)c4)cc3)ccn2)c(OC)cc1N(C)CCN(C)C [EGFR_3365_85, N-(2-((2-(dimethylamino)ethyl)(methyl)amino)-4-methoxy-5-((4-(4-(1-methyl-1H-pyrazol-4-yl)benzoyl)pyridin-2-yl)amino)phenyl) acrylamide]
2 | 10 nM | 100.0% | C=CC(=O)Nc1cc(Nc2nccc(C(=O)c3ccc(OCc4ccccc4)cc3)n2)c(OC)cc1N(C)CCN(C)C [EGFR_3365_16, N-(5-((4-(4-(benzyloxy)benzoyl)pyrimidin-2-yl)amino)-2-((2-(dimethylamino)ethyl)(methyl)amino)-4-methoxyphenyl)acrylamide]
3 | 5.9 nM | 100.0% | C=CC(=O)Nc1cc(Nc2nccc(C(=O)c3ccc(F)cc3)n2)c(OC)cc1N(C)CCN(C)C [EGFR_3365_10, N-(2-((2-(dimethylamino)ethyl)(methyl)amino)-5-((4-(4-fluorobenzoyl)pyrimidin-2-yl)amino)-4-methoxyphenyl) acrylamide]
4 | 36.8 nM | 100.0% | C=CC(=O)Nc1cc(Nc2nccc(C(=O)c3ccc(OCCC)cc3OCCC)n2)c(OC)cc1N(C)CCN(C)C [EGFR_3365_70, N-(2-((2-(dimethylamino)ethyl)(methyl)amino)-5-((4-(2,4-dipropoxybenzoyl)pyrimidin-2-yl)amino)-4-methoxyphenyl)acrylamide]
5 | 13.5 nM | 100.0% | C=CC(=O)Nc1cc(Nc2nccc(C(=O)c3ccc(N(CC)CC)cc3)n2)c(OC)cc1N(C)CCN(C)C [EGFR_3365_72, N-(5-((4-(4-(diethylamino)benzoyl)pyrimidin-2-yl)amino)-2-((2-(dimethylamino)ethyl)(methyl)amino)-4-methoxyphenyl)acrylamide]
6 | 26.6 nM | 100.0% | C=CC(=O)Nc1cc(Nc2cc(C(=O)c3ccc(N4CC(OC)C4)cc3)ccn2)c(OC)cc1N(C)CCN(C)C (racemic) [EGFR_3365_53, N-(2-((2-(dimethylamino)ethyl)(methyl)amino)-4-methoxy-5-((4-(4-(3-methoxyazetidin-1-yl)benzoyl)pyridin-2-yl)amino)phenyl)acrylamide]
7 | 4.47 nM | 100.0% | C=CC(=O)Nc1cc(Nc2nccc(C(=O)c3ccc(N(C)C)cc3)n2)c(OC)cc1N(C)CCN(C)C [EGFR_3365_73, N-(5-((4-(4-(dimethylamino)benzoyl)pyrimidin-2-yl)amino)-2-((2-(dimethylamino)ethyl) (methyl)amino)-4-methoxyphenyl)acrylamide]
8 | 14.3 nM | 100.0% | C=CC(=O)Nc1cc(Nc2nccc(C(=O)c3ccccc3C(F)(F)F)n2)c(OC)cc1N(C)CCN(C)C [EGFR_3365, N-(2-((2-(dimethylamino)ethyl) (methyl)amino)-4-methoxy-5-((4-(2-(trifluoromethyl)benzoyl)pyrimidin-2-yl)amino)phenyl)acrylamide]
9 | 20.1 nM | 98.8% | C=CC(=O)Nc1cc(Nc2cc(C(=O)c3ccc(N4CCN(C)CC4)cc3)ccn2)c(OC)cc1N(C)CCN(C)C [EGFR_3365_55, N-(2-((2-(dimethylamino)ethyl)(methyl)amino)-4-methoxy-5-((4-(4-(4-methylpiperazin-1-yl)benzoyl)pyridin-2-yl)amino)phenyl)acrylamide]
10 | 15.3 nM | 100.0% | C=CC(=O)Nc1cc(Nc2nccc(C(=O)c3ccc(OC)cc3)n2)c(OC)cc1N(C)CCN(C)C [EGFR_3365_28, N-(2-((2-(dimethylamino)ethyl)(methyl)amino)-4-methoxy-5-((4-(4-methoxybenzoyl)pyrimidin-2-yl)amino)phenyl)acrylamide]
11 | 8.6 nM | 100.0% | C=CC(=O)Nc1cc(Nc2cc(C(=O)c3ccc(OC)cc3)ccn2)c(OC)cc1N(C)CCN(C)C [EGFR_3365_51, N-(2-((2-(dimethylamino)ethyl)(methyl)amino)-4-methoxy-5-((4-(4-methoxybenzoyl)pyridin-2-yl)amino)phenyl)acrylamide]
12 | 22.5 nM | 100.0% | C=CC(=O)Nc1cc(Nc2cc(C(=O)c3ccc(OCC)cc3)ccn2)c(OC)cc1N(C)CCN(C)C [EGFR_3365_52, N-(2-((2-(dimethylamino)ethyl)(methyl)amino)-5-((4-(4-ethoxybenzoyl)pyridin-2-yl)amino)-4-methoxyphenyl) acrylamide]
13 | 2.46 nM | 100.0% | C=CC(=O)Nc1cc(Nc2nccc(C(=O)c3ccc(OC)cc3OC)n2)c(OC)cc1N(C)CCN(C)C [EGFR_3365_69, N-(5-((4-(2,4-dimethoxybenzoyl)pyrimidin-2-yl)amino)-2-((2-(dimethylamino)ethyl)(methyl)amino)-4-methoxyphenyl)acrylamide]
14 | 6.23 nM | 89.9% | C=CC(=O)Nc1cc(Nc2nccc(C(=O)c3ccc(N4CCC4)cc3)n2)c(OC)cc1N(C)CCN(C)C [EGFR_3365_58, N-(5-((4-(4-(azetidin-1-yl)benzoyl)pyrimidin-2-yl)amino)-2-((2-(dimethylamino)ethyl)(methyl)amino)-4-methoxyphenyl)acrylamide]
15 | 41.3 nM | 100.0% | C=CC(=O)Nc1cc(Nc2nccc(C(=O)c3ccc(Oc4ccccc4)cc3)n2)c(OC)cc1N(C)CCN(C)C [EGFR_3365_17, N-(2-((2-(dimethylamino)ethyl)(methyl)amino)-4-methoxy-5-((4-(4-phenoxybenzoyl)pyrimidin-2-yl)amino)phenyl)acrylamide]
16 | 6.2 nM | 98.1% | C=CC(=O)Nc1cc(Nc2nccc(C(=O)c3ccc(OCC)cc3)n2)c(OC)cc1N(C)CCN(C)C [EGFR_3365_29, N-(2-((2-(dimethylamino)ethyl)(methyl)amino)-5-((4-(4-ethoxybenzoyl)pyrimidin-2-yl)amino)-4-methoxyphenyl) acrylamide]
17 | 15.3 nM | 100.0% | C=CC(=O)Nc1cc(Nc2cc(C(=O)c3ccc(N(C)C)cc3)ccn2)c(OC)cc1N(C)CCN(C)C.O=C(O)C(F)(F)F [EGFR_3365_4, N-(5-((4-(4-(dimethylamino)benzoyl)pyridin-2-yl)amino)-2-((2-(dimethylamino)ethyl) (methyl)amino)-4-methoxyphenyl)acrylamide 2,2,2-trifluoroacetate]
18 | 15.2 nM | – | C=CC(=O)Nc1cc(Nc2nccc(C(=O)c3ccc(N4CCC(N)CC4)cc3)n2)c(OC)cc1N(C)CCN(C)C [EGFR_3365_121, N-(5-((4-(4-(4-aminopiperidin-1-yl)benzoyl)pyrimidin-2-yl)amino)-2-((2-(dimethylamino)ethyl)(methyl)amino)-4-methoxyphenyl)acrylamide]
19 | 4.39 nM | – | C=CC(=O)Nc1cc(Nc2nccc(C(=O)c3ccc(N4CCCCC4)cc3)n2)c(OC)cc1N(C)CCN(C)C [EGFR_3365_90, N-(2-((2-(dimethylamino)ethyl)(methyl)amino)-4-methoxy-5-((4-(4-(piperidin-1-yl)benzoyl)pyrimidin-2-yl)amino)phenyl)acrylamide]
20 | 29.9 nM | 99.8% | C=CC(=O)Nc1cc(Nc2cc(C(=O)c3ccc(N4CCCC4)cc3)ccn2)c(OC)cc1N(C)CCN(C)C [EGFR_3365_56, N-(2-((2-(dimethylamino)ethyl)(methyl)amino)-4-methoxy-5-((4-(4-(pyrrolidin-1-yl)benzoyl)pyridin-2-yl)amino)phenyl)acrylamide]
21 | 20.3 nM | 100.0% | C=CC(=O)Nc1cc(Nc2nccc(C(=O)c3ccccc3Br)n2)c(OC)cc1N(C)CCN(C)C [EGFR_3365_12, N-(5-((4-(2-bromobenzoyl)pyrimidin-2-yl)amino)-2-((2-(dimethylamino)ethyl) (methyl)amino)-4-methoxyphenyl)acrylamide]
22 | 8.3 nM | 100.0% | C=CC(=O)Nc1cc(Nc2nccc(C(=O)c3ccc(OC(C)C)cc3)n2)c(OC)cc1N(C)CCN(C)C [EGFR_3365_31, N-(2-((2-(dimethylamino)ethyl)(methyl)amino)-5-((4-(4-isopropoxybenzoyl)pyrimidin-2-yl)amino)-4-methoxyphenyl) acrylamide]
23 | 19.1 nM | 100.0% | C=CC(=O)Nc1cc(Nc2nccc(C(=O)c3ccc(OCC)cc3OCC)n2)c(OC)cc1N(C)CCN(C)C [EGFR_3365_68, N-(5-((4-(2,4-diethoxybenzoyl)pyrimidin-2-yl)amino)-2-((2-(dimethylamino)ethyl) (methyl)amino)-4-methoxyphenyl)acrylamide]
24 | 2 nM | 100.0% | C=CC(=O)Nc1cc(Nc2nccc(C(=O)c3ccc(OCCC)cc3)n2)c(OC)cc1N(C)CCN(C)C [EGFR_3365_30, N-(2-((2-(dimethylamino)ethyl)(methyl)amino)-4-methoxy-5-((4-(4-propoxybenzoyl)pyrimidin-2-yl)amino)phenyl)acrylamide]

Row | SMILES | IC50 [1] | Stability in SGF, % [2]
25 | C=CC(=O)Nc1cc(Nc2nccc(C(=O)c3ccc(OCCCC)cc3)n2)c(OC)cc1N(C)CCN(C)C [EGFR_3365_66, N-(5-((4-(4-butoxybenzoyl)pyrimidin-2-yl)amino)-2-((2-(dimethylamino)ethyl)(methyl)amino)-4-methoxyphenyl)acrylamide] | 12.8 nM | 100.0%
26 | C=CC(=O)Nc1cc(Nc2nccc(C(=O)c3ccc(N4CCN(C)CC4)cc3)n2)c(OC)cc1N(C)CCN(C)C [EGFR_3365_62, N-(2-((2-(dimethylamino)ethyl)(methyl)amino)-4-methoxy-5-((4-(4-(4-methylpiperazin-1-yl)benzoyl)pyrimidin-2-yl)amino)phenyl)acrylamide formate] | 12.1 nM | 100.0%

Reference: US20200339544A1 (JOINT STOCK COMPANY "BIOCAD", priority 2017, published 2020)
